# Laboratory results reported in PubChem BioAssay (NCI).
#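 All cell lines were grown in 96-well plates and treated with compound for 48 hours. TGI marks complete inhibition of growth.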
# Experiments:
# Assay in all cases: NCI tumour cell line growth inhibition, 48 h
# [1] = tested on: OVCAR-3 ovarian
# [2] = tested on: HOP-92 NSCLC
# [3] = tested on: RXF 393 renal
# [4] = tested on: NCI-H522 lung
# [5] = tested on: HCT-15 colon
# [6] = tested on: KM12 colon
# [7] = tested on: DU-145 prostate
# [8] = tested on: SF-268 CNS
# [9] = tested on: PC-3 prostate
# [10] = tested on: UACC-62 melanoma
# [11] = tested on: M14 melanoma
# [12] = tested on: SN12C renal
# [13] = tested on: 786-0 renal
# [14] = tested on: NCI-H23 lung
# [15] = tested on: SK-MEL-5 melanoma
# [16] = tested on: NCI-H226 lung
# [17] = tested on: EKVX NSCLC
# [18] = tested on: HCT-116 colon
# [19] = tested on: SNB-75 CNS
# [20] = tested on: A498 renal
# [21] = tested on: BT-549 breast
# [22] = tested on: SR leukemia
# [23] = tested on: MOLT-4 leukemia
# [24] = tested on: MDA-MB-435
# [25] = tested on: MDA-MB-231 breast
# [26] = tested on: HL-60(TB) leukemia
# [27] = tested on: K-562 leukemia
# [28] = tested on: SF-539 CNS
# [29] = tested on: HOP-62 NSCLC
# [30] = tested on: HS 578T breast
# [31] = tested on: SK-MEL-28 melanoma
# [32] = tested on: SK-OV-3 ovarian
# [33] = tested on: UACC-257 melanoma
# [34] = tested on: U251 CNS
# [35] = tested on: SW-620 colon
# [36] = tested on: SK-MEL-2 melanoma
# [37] = tested on: COLO 205 colon
# [38] = tested on: LOX IMVI melanoma
# [39] = tested on: NCI-H460 lung
# [40] = tested on: CCRF-CEM leukemia
# [41] = tested on: OVCAR-8 ovarian
# [42] = tested on: OVCAR-5 ovarian
# [43] = tested on: NCI/ADR-RES ovarian
# [44] = tested on: HCC-2998 colon
# [45] = tested on: RPMI-8226 leukemia
# [46] = tested on: A549 NSCLC
# [47] = tested on: MCF7 breast
# [48] = tested on: SF-295 CNS
# [49] = tested on: OVCAR-4 ovarian
# [50] = tested on: ACHN renal
# [51] = tested on: TK-10 renal
# [52] = tested on: HT29 colon
# [53] = tested on: CAKI-1 renal
# [54] = tested on: MDA-N
# [55] = tested on: T-47D breast
# [56] = tested on: UO-31 renal
# [57] = tested on: IGROV1 ovarian
# [58] = tested on: MALME-3M melanoma
# [59] = tested on: SNB-19 CNS
compound,measurement,setting,value
O=P1(N(CCCl)CCCl)Oc2ccc(Cl)cc2Sc2c(ccc(Cl)c2Cl)O1 (configuration not stated),TGI,[1],> 100 µM
same,TGI,[2],34.4 µM
same,TGI,[3],43.9 µM
same,TGI,[4],> 100 µM
same,TGI,[5],> 100 µM
same,TGI,[6],> 100 µM
same,TGI,[7],> 100 µM
same,TGI,[8],> 100 µM
same,TGI,[9],> 100 µM
same,TGI,[10],> 100 µM
same,TGI,[11],> 100 µM
same,TGI,[12],> 100 µM
same,TGI,[13],> 100 µM
same,TGI,[14],> 100 µM
same,TGI,[15],21.5 µM
same,TGI,[16],95 µM
same,TGI,[17],> 100 µM
same,TGI,[18],74.6 µM
same,TGI,[19],67.3 µM
same,TGI,[20],> 100 µM
same,TGI,[21],> 100 µM
same,TGI,[22],> 100 µM
same,TGI,[23],> 100 µM
same,TGI,[24],> 100 µM
same,TGI,[25],> 100 µM
same,TGI,[26],> 100 µM
same,TGI,[27],> 100 µM
same,TGI,[28],> 100 µM
same,TGI,[29],> 100 µM
same,TGI,[30],33.6 µM
same,TGI,[31],> 100 µM
same,TGI,[32],> 100 µM
same,TGI,[33],> 100 µM
same,TGI,[34],> 100 µM
same,TGI,[35],> 100 µM
same,TGI,[36],80.3 µM
same,TGI,[37],23 µM
same,TGI,[38],> 100 µM
same,TGI,[39],33.7 µM
same,TGI,[40],> 100 µM
same,TGI,[41],> 100 µM
same,TGI,[42],> 100 µM
same,TGI,[43],> 100 µM
same,TGI,[44],> 100 µM
same,TGI,[45],> 100 µM
same,TGI,[46],77.1 µM
same,TGI,[47],> 100 µM
same,TGI,[48],> 100 µM
same,TGI,[49],> 100 µM
same,TGI,[50],> 100 µM
same,TGI,[51],> 100 µM
same,TGI,[52],> 100 µM
same,TGI,[53],> 100 µM
same,TGI,[54],> 100 µM
same,TGI,[55],> 100 µM
same,TGI,[56],> 100 µM
Cc1ccc(-c2nc3cc(N4CCN(C)CC4)c(F)cc3[nH]2)cc1,TGI,[2],> 100 µM
same,TGI,[3],38.4 µM
same,TGI,[4],31.9 µM
same,TGI,[5],21 µM
same,TGI,[6],27 µM
same,TGI,[7],> 100 µM
same,TGI,[8],43.6 µM
same,TGI,[9],> 100 µM
same,TGI,[10],31.3 µM
same,TGI,[11],31 µM
same,TGI,[12],> 100 µM
same,TGI,[13],39 µM
same,TGI,[14],> 100 µM
same,TGI,[15],25.1 µM
same,TGI,[16],38.3 µM
same,TGI,[17],70 µM
same,TGI,[18],50 µM
same,TGI,[20],91.4 µM
same,TGI,[21],55.8 µM
same,TGI,[22],> 100 µM
same,TGI,[23],> 100 µM
same,TGI,[24],48.1 µM
same,TGI,[25],> 100 µM
same,TGI,[26],46 µM
same,TGI,[27],> 100 µM
same,TGI,[29],29.3 µM
same,TGI,[30],29.1 µM
same,TGI,[31],61.3 µM
same,TGI,[32],57.7 µM
same,TGI,[33],34.3 µM
same,TGI,[34],> 100 µM
same,TGI,[35],> 100 µM
same,TGI,[36],32 µM
same,TGI,[37],34.5 µM
same,TGI,[38],94.3 µM
same,TGI,[39],32.6 µM
same,TGI,[40],> 100 µM
same,TGI,[42],60.2 µM
same,TGI,[43],> 100 µM
same,TGI,[44],24.6 µM
same,TGI,[57],90 µM
same,TGI,[45],75.5 µM
same,TGI,[46],49 µM
same,TGI,[47],30.3 µM
same,TGI,[48],30.4 µM
same,TGI,[49],59.3 µM
same,TGI,[50],70.5 µM
same,TGI,[51],> 100 µM
same,TGI,[58],31.2 µM
same,TGI,[53],> 100 µM
same,TGI,[54],95.7 µM
same,TGI,[55],50.7 µM
same,TGI,[59],58.9 µM
same,TGI,[56],27.4 µM
CC1(C)CC(=O)c2c(nc3c4c([nH]c(-c5ccc([N+](=O)[O-])cc5)c24)CC(C)(C)C3)C1,TGI,[1],> 100 µM
same,TGI,[2],> 100 µM
same,TGI,[3],> 100 µM
same,TGI,[4],> 100 µM
same,TGI,[5],> 100 µM
same,TGI,[6],> 100 µM
same,TGI,[7],> 100 µM
same,TGI,[8],> 100 µM
same,TGI,[9],> 100 µM
same,TGI,[10],93.4 µM
same,TGI,[11],> 100 µM
same,TGI,[12],> 100 µM
same,TGI,[13],> 100 µM
same,TGI,[14],> 100 µM
same,TGI,[15],> 100 µM
same,TGI,[16],> 100 µM
same,TGI,[17],> 100 µM
same,TGI,[18],> 100 µM
same,TGI,[19],> 100 µM
same,TGI,[20],44.6 µM
same,TGI,[21],> 100 µM
same,TGI,[22],47.9 µM
same,TGI,[23],> 100 µM
same,TGI,[24],> 100 µM
same,TGI,[25],> 100 µM
same,TGI,[26],> 100 µM
same,TGI,[27],> 100 µM
same,TGI,[28],> 100 µM
same,TGI,[29],> 100 µM
same,TGI,[30],> 100 µM
same,TGI,[31],> 100 µM
same,TGI,[32],> 100 µM
same,TGI,[33],> 100 µM
same,TGI,[34],> 100 µM
same,TGI,[35],> 100 µM
same,TGI,[36],> 100 µM
same,TGI,[37],59 µM
same,TGI,[38],> 100 µM
same,TGI,[39],> 100 µM
same,TGI,[40],> 100 µM
same,TGI,[41],> 100 µM
same,TGI,[42],> 100 µM
same,TGI,[43],> 100 µM
same,TGI,[44],> 100 µM
same,TGI,[46],> 100 µM
same,TGI,[47],> 100 µM
same,TGI,[48],> 100 µM
same,TGI,[49],> 100 µM
same,TGI,[50],> 100 µM
same,TGI,[51],> 100 µM
same,TGI,[52],> 100 µM
same,TGI,[58],> 100 µM
same,TGI,[53],> 100 µM
same,TGI,[54],> 100 µM
same,TGI,[55],> 100 µM
same,TGI,[59],> 100 µM
same,TGI,[56],> 100 µM
